Read-outs that look alike come from different tables or passages of the source.

The target in the assay is T1, DPP-IV (Homo sapiens, UniProt P27487).
T1 construct: purchased Enzyme Systems Products SPE-01
Put plainly: In vitro assay for dipeptidyl peptidase inhibition. Type of assay: biochemical. As to conditions: hydrochloride salts, Gly-Pro-4-methoxy B naphthylamide substrate, overnight at 37° C. Here is the method:
150 μL of an enzyme-substrate solution was pipetted into microtiter wells of a polystyrene 96-well plate, and maintained at 4° C. The enzyme-substrate solution comprised 50 μM Gly-Pro-4-methoxy B naphthylamide HCl in 50 mM Tris assay buffer pH 7.3 containing 0.1M sodium chloride, 0.1% (v/v) Triton and 50 μU/mL DPP-IV (Enzyme Systems Products Cat#SPE-01, DPP-IV 5 mU/mL stock). 5 μL/well of compounds of Formula (I) were added, bringing the final compound of Formula (I) concentrations to 3 μM-10 nM per well.
Controls. Enzyme was omitted from four (4) wells, as a reagent blank. 5 μL of 3 mM Diprotin A was added to four wells as a positive quality control, providing a final Diprotin A concentration of 100 μM. To measure total enzyme activity (i.e. a negative control), without the influence of any compounds of Formula (I), 5 μL of distilled water was added to four wells.
The entire assay was incubated overnight (about 14-18 hours) at 37° C.

Setting [1] is: read-out: IC50 (concentration of test compound required for 50% inhibition).
Setting [2] is: read-out: IC50 (concentration of test compound required for 50% inhibition), bound given in μM.

T1 sequence (P27487 whole entry, species assumed): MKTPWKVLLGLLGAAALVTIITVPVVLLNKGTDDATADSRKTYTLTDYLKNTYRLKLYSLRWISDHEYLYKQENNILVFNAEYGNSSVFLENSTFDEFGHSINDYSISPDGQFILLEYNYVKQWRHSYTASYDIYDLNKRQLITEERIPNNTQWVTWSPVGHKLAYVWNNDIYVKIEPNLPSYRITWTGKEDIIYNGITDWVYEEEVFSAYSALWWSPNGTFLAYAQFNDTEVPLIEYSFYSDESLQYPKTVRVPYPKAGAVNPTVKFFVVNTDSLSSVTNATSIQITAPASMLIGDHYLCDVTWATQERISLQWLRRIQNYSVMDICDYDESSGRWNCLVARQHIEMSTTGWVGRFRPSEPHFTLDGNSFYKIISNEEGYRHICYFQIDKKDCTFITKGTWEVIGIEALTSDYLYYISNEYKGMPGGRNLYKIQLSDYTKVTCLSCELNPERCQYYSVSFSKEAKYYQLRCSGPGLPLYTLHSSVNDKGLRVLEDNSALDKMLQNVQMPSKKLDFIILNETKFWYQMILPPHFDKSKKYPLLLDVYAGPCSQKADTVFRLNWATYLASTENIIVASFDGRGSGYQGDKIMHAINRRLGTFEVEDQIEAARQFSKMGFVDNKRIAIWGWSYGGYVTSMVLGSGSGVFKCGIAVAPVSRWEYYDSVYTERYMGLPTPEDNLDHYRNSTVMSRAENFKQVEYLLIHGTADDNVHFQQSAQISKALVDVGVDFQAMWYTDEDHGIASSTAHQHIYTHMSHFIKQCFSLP

Regarding `N[C@H](C(=O)N1CCCC1)[C@H]1CC[C@@H](NC(=O)CCC2C(=O)OCN2C(=O)OCc2ccccc2)CC1` (stereo in doubt) [Example 4, (4S)-4-{2-[cis-4-((1S)-1-amino-2-oxo-2-pyrrolidin-1-yl-ethyl)-cyclohexylcarbamoyl]-ethyl}-5-oxo-oxazolidine-3-carboxylic acid benzyl ester], the IC50 under setting [1] lay within 0.1 to 0.5 µM.
With `N[C@H](C(=O)N1CCCC1)[C@H]1CC[C@@H](NC(=O)CNC(=O)c2ccccc2)CC1` [Example 1, N-{[cis-4-((1S)-1-amino-2-oxo-2-pyrrolidin-1-yl-ethyl)-cyclohexylcarbamoyl]-methyl}-benzamide], the IC50 under setting [1] was over 0.5 µM.
The same measure, in the same setting: the figure for `N[C@H](C(=O)N1CCCC1)[C@H]1CC[C@@H](NC(=O)CNC(=O)OCc2ccccc2)CC1` [Example 2, {[cis-4-((1S)-1-amino-2-oxo-2-pyrrolidin-1-yl-ethyl)-cyclohexylcarbamoyl]-methyl}-carbamic acid benzyl ester] is over 0.5 µM; for `N[C@H](C(=O)N1CCCC1)[C@H]1CC[C@@H](NC(=O)[C@@H]2CCCN2C(=O)OCc2ccccc2)CC1` [Example 3, (2S)-2-[cis-4-(1-(1S)-amino-2-oxo-2-pyrrolidin-1-yl-ethyl)-cyclohexylcarbamoyl]-pyrrolidine-1-carboxylic acid benzyl ester] it is over 0.5 µM; for `N[C@H](C(=O)N1CCCC1)[C@H]1CC[C@@H](NC(=O)[C@H]2COCN2C(=O)OCc2ccccc2)CC1` [Example 5, (4R)-4-[cis-4-((1S)-1-amino-2-oxo-2-pyrrolidin-1-yl-ethyl)-cyclohexylcarbamoyl]-oxazolidine-3-carboxylic acid benzyl ester] it is 0.1 to 0.5 µM.
As for `N[C@H](C(=O)N1CCCC1)[C@H]1CC[C@@H](NC(=O)[C@@H]2COCN2C(=O)OCc2ccccc2)CC1` [Example 6, (4S)-4-[cis-4-((1S)-1-amino-2-oxo-2-pyrrolidin-1-yl-ethyl)-cyclohexylcarbamoyl]-oxazolidine-3-carboxylic acid benzyl ester], the IC50 is, setting by setting: under setting [1], over 0.5 µM; under setting [2], at most 1 µM.
In the same order, the values of `N[C@H](C(=O)N1CCCC1)[C@H]1CC[C@@H](NC(=O)[C@@H]2CNC(=O)N2C(=O)OCc2ccccc2)CC1` [Example 7, (5S)-5-[cis-4-((1S)-1-amino-2-oxo-2-pyrrolidin-1-yl-ethyl)-cyclohexylcarbamoyl]-2-oxo-imidazolidine-1-carboxylic acid benzyl ester] are over 0.5 µM and at most 1 µM.
Turning to `N[C@H](C(=O)N1CCCC1)[C@H]1CC[C@H](NC(=O)[C@H]2COCN2C(=O)OCc2ccccc2)CC1` [Example 8, (4R)-4-[trans-4-((1S)-1-amino-2-oxo-2-pyrrolidin-1-yl-ethyl)-cyclohexylcarbamoyl]-oxazolidine-3-carboxylic acid benzyl ester], under setting [1], the IC50 fell in the range of 0.1 to 0.5 µM.
For `N[C@H](C(=O)N1CCCC1)[C@H]1CC[C@H](NC(=O)[C@@H]2CNC(=O)N2C(=O)OCc2ccccc2)CC1` [Example 9, (5S)-5-[trans-4-((1S)-1-amino-2-oxo-2-pyrrolidin-1-yl-ethyl)-cyclohexylcarbamoyl]-2-oxo-imidazolidine-1-carboxylic acid benzyl ester], the IC50 under setting [1] is at most 0.1 µM.
For the compound `N[C@H](C(=O)N1CCCC1)[C@H]1CC[C@H](NC(=O)CC[C@H]2C(=O)OCN2C(=O)OCc2ccccc2)CC1` [Example 10, (4S)-4-{2-[trans-4-((1S-)-1-amino-2-oxo-2-pyrrolidin-1-yl-ethyl)-cyclohexylcarbamoyl]-ethyl}-5-oxo-oxazolidine-3-carboxylic acid benzyl ester], under setting [1], the IC50 was at most 0.1 µM.
As to `N[C@H](C(=O)N1CCCC1)[C@H]1CC[C@H](NC(=O)[C@@H]2COCN2C(=O)OCc2ccccc2)CC1` [Example 11, (4S)-4-[trans-4-((1S)-1-amino-2-oxo-2-pyrrolidin-1-yl-ethyl)-cyclohexylcarbamoyl]-oxazolidine-3-carboxylic acid benzyl ester], the IC50 under setting [1] was at most 0.1 µM.
With `N[C@H](C(=O)N1CCCC1)[C@H]1CC[C@H](NC(=O)[C@@H]2C[C@@H](O)CN2C(=O)OCc2ccccc2)CC1` [Example 12, (2S,4R)-2-[trans-4-((1S)-1-amino-2-oxo-2-pyrrolidin-1-yl-ethyl)-cyclohexylcarbamoyl]-4-hydroxy-pyrrolidine-1-carboxylic acid benzyl ester], the IC50 under setting [1] is at most 0.1 µM.
For `N[C@H](C(=O)N1CCCC1)[C@H]1CC[C@H](NC(=O)C[C@H]2C(=O)OCN2C(=O)OCc2ccccc2)CC1` [Example 13, (4S)-4-{[trans-4-((1S)-1-amino-2-oxo-2-pyrrolidin-1-yl-ethyl)-cyclohexylcarbamoyl]-methyl}-5-oxo-oxazolidine-3-carboxylic acid benzyl ester], under setting [1], the IC50 is at most 0.1 µM.
On to `N[C@H](C(=O)N1CCCC1)[C@H]1CC[C@H](NC(=O)[C@@H]2CCC(=O)N2C(=O)OCc2ccccc2)CC1` [Example 14, (2S)-2-[trans-4-(1-(1S)-amino-2-oxo-2-pyrrolidin-1-yl-ethyl)-cyclohexylcarbamoyl]-5-oxo-pyrrolidine-1-carboxylic acid benzyl ester], for which the IC50 under setting [1] was 0.1 to 0.5 µM.
Same read-out and setting: with `N[C@H](C(=O)N1CCCC1)[C@H]1CC[C@H](NC(=O)[C@H]2CCC(=O)N2C(=O)OCc2ccccc2)CC1` [Example 15, (2R)-2-[trans-4-(1-(S)-amino-2-oxo-2-pyrrolidin-1-yl-ethyl)-cyclohexylcarbamoyl]-5-oxo-pyrrolidine-1-carboxylic acid benzyl ester] the figure was at most 0.1 µM; with `N[C@H](C(=O)N1CCCC1)[C@H]1CC[C@H](NC(=O)[C@@H]2COC(=O)N2Cc2ccccc2)CC1` [Example 16, (4S)-3-benzyl-2-oxo-oxazolidine-4-carboxylic acid [trans-4-((1S)-1-Amino-2-oxo-2-pyrrolidin-1-yl-ethyl)-cyclohexyl]-amide], at most 0.1 µM; with `CN(C(=O)OCc1ccccc1)C(C)(C)C(=O)N[C@H]1CC[C@H]([C@H](N)C(=O)N2CCCC2)CC1` [Example 17, (S)-{1-[trans-4-(1-amino-2-oxo-2-pyrrolidin-1-yl-ethyl)-cyclohexylcarbamoyl]-1-methyl-ethyl)-methyl-carbamic acid benzyl ester], 0.1 to 0.5 µM.
Same read-out and setting: the figure for `NC(=O)c1nccnc1C(=O)N[C@H]1CC[C@H]([C@H](N)C(=O)N2CCCC2)CC1` [Example 19, (S)-pyrazine-2,3-dicarboxylic acid amide [trans-4-(1-amino-2-oxo-2-pyrrolidin-1-yl-ethyl)-cyclohexyl]-amide] is at most 0.1 µM.
Same read-out and setting: the figure for `N[C@H](C(=O)N1CCCC1)[C@H]1CC[C@H](NC(=O)CN2C(=O)c3ccccc3/C2=C\c2ccccc2)CC1` [Example 20, N-[trans-4-(1-(1S)-amino-2-oxo-2-pyrrolidin-1-yl-ethyl)-cyclohexyl]-2-(1-benzylidene-3-oxo-1,3-dihydro-isoindol-2-yl)-acetamide] is at most 0.1 µM; for `NC(C(=O)N1CCCC1)C1CCC(NC(=O)C2CC(O)CN2)CC1` [Example 21, (1S,4R)-4-hydroxy-pyrrolidine-2-carboxylic acid [trans-4-((1S)-1-amino-2-oxo-2-pyrrolidin-1-yl-ethyl)-cyclohexyl]-amide] it is 0.1 to 0.5 µM; for `N[C@H](C(=O)N1CCCC1)[C@H]1CC[C@H](N2C(=O)c3nccnc3C2=O)CC1` [Example 22, 6-[trans-4-((1S)-1-amino-2-oxo-2-pyrrolidin-1-yl-ethyl)-cyclohexyl]-pyrrolo[3,4-b]pyrazine-5,7-dione] it is at most 0.1 µM.
Take `N[C@H](C(=O)N1CCCC1)[C@H]1CC[C@H](N2C(=O)c3cccnc3C2=O)CC1` [Example 24, 6-[trans-4-((1S)-1-amino-2-oxo-2-pyrrolidin-1-yl-ethyl)-cyclohexyl]-pyrrolo[3,4-b]pyridine-5,7-dione]: the IC50 under setting [1] is at most 0.1 µM.
As for `N[C@H](C(=O)N1CCCC1)[C@H]1CC[C@H](NC(=O)N2CCC[C@H]2COCc2ccccc2)CC1` [Example 25, 2-benzyloxymethyl-pyrrolidine-1-carboxylic acid [trans-4-((1S)-1-Amino-2-oxo-2-pyrrolidin-1-yl-ethyl)-cyclohexyl]-amide], the IC50 under setting [1] is at most 0.1 µM.
The same measure, in the same setting: the figure for `N[C@H](C(=O)N1CCCC1)[C@H]1CC[C@H](N2C(=O)O[C@@H](c3ccccc3)C2=O)CC1` [Example 28, 3-[trans-4-((1S)-1-amino-2-oxo-2-pyrrolidin-1-yl-ethyl)-cyclohexyl]-(5S)-5-phenyl-oxazolidine-2,4-dione] is 0.1 to 0.5 µM; for `N[C@H](C(=O)N1CCC(F)(F)C1)[C@H]1CC[C@H](NC(=O)[C@@H]2CNC(=O)N2C(=O)OCc2ccccc2)CC1` [Example 29, (5S)-5-{trans-4-[(1S)-1-amino-2-(3,3-difluoro-pyrrolidin-1-yl)-2-oxo-ethyl]-cyclohexylcarbamoyl}-2-oxo-imidazolidine-1-carboxylic acid benzyl ester] it is at most 0.1 µM.
In the case of `CN(CC(=O)N[C@H]1CC[C@H]([C@H](N)C(=O)N2CCC(F)(F)C2)CC1)C(=O)OCc1ccccc1` [Example 30, (S)-({trans-4-[1-amino-2-(3,3-difluoro-pyrrolidin-1-yl)-2-oxo-ethyl]-cyclohexylcarbamoyl}-methyl)-methyl-carbamic acid benzyl ester], the IC50 under setting [1] was at most 0.1 µM.

For the origin of these results see patent US20050234065A1, “Dipeptidyl peptidase-IV inhibitors” (Pfizer Inc, priority 2004, published 2005).
